Measured values: patent US20120046354A1, “ANTI-OXIDANT LOZENGES FOR THE PREVENTION AND TREATMENT OF RADIATION INDUCED MUCOSITIS, PRECANCEROUS LESIONS, ORAL CANCER AND OTHER ORAL CAVITY MUCOSAL DISORDERS” (priority 2010, published 2012)

Columns and labels:
severe mucositis = conditions: 250 mg daily for 21 days then 75 mg daily; control group 38 patient-weeks, P=0.025; cited from earlier work
mucositis = conditions: mouthwash; cited from earlier work
leukoplakia = system: leukoplakia; set-up: clinical response rate / response rate among patients with biopsy-proved dysplasia: dose or concentration left out as unconfirmed; conditions: cited from earlier work
oral leukoplakia = conditions: topically applied; cited from earlier work
[1] = system: radiation-induced anal ulceration; experiment: case of a patient with AIDS and anal carcinoma with radiation-induced anal ulceration, orally administered vitamin A; format: in vivo, human; conditions: single patient
Text: (§1) The inventor has described a dramatic case of the patient with AIDS and anal carcinoma who developed a large radiation-induced anal ulceration with marked debility. The patient required high dose opioid therapy for control of anal pain. […] The inventor has also designed, conducted and published a randomized double-blinded trial comparing vitamin A in the form of retinyl palmitate (10,000 IU by mouth for 90 days) to placebo in patients with radiation proctopathy.

radiation proctopathy = experiment: randomized double-blinded trial versus placebo in patients with radiation proctopathy; format: in vivo, human; conditions: 10,000 IU by mouth for 90 days
Text: as §1

wound healing = conditions: following burn injury and surgeries, laboratory animals; cited from earlier work
[2] = system: mucositis after chemotherapy; conditions: 1 mL topical oil (400 mg) twice daily, 18 patients; cited from earlier work
[3] = three months of therapy, placebo 10 percent

CC1=C(/C=C/C(C)=C/C=C/C(C)=C/C=C/C=C(C)/C=C/C=C(C)/C=C/C2=C(C)CCCC2(C)C)C(C)(C)CCC1 [beta-carotene]
severe mucositis (severe mucositis): 22 patient-weeks

[H]/N=C(\N/C(=N/[H])NCCCCCCNC(=N)NC(=N)Nc1ccc(Cl)cc1)Nc1ccc(Cl)cc1 [chlorhexidine]
effectiveness for mucositis (mucositis): limited or possibly no effectiveness

CC1=C(/C=C/C(C)=C/C=C/C(C)=C\C(=O)O)C(C)(C)CCC1 [isotretinoin, 13-cis-retinoic acid]
patients who required decreases in their dosage (leukoplakia; higher dose, 2 mg/kg per day): 47%
patients who developed conjunctivitis (leukoplakia; lower dose, 1 mg/kg per day): 29%
xeroderma (leukoplakia; lower dose, 1 mg/kg per day): common
clinical response rate (leukoplakia; [3]): 67%
response rate among patients with biopsy-proved dysplasia (leukoplakia; [3]): 54%
patients with relapse of disease (leukoplakia; within three months of discontinuation of treatment): about half

O=C(c1ccccc1)c1ccc2n1CCC2C(=O)O (centres unmarked) [ketolorac]
treatment of oral leukoplakia (oral leukoplakia): did not appear to effectively treat

CCCCCCCCCCCCCCCC(=O)OC/C=C(C)/C=C/C=C(C)/C=C/C1=C(C)CCCC1(C)C [retinyl palmitate]
persistence of wound healing and symptomatic relief ([1]; after twelve week oral course): more than six
wound healing and symptomatic relief ([1]; twelve week course, orally administered): complete wound healing and symptomatic relief
rectal symptoms of radiation proctopathy (radiation proctopathy): significantly reduced

Vitamin A
wound healing (wound healing): accelerate wound healing

vitamin E
benefit on mucosal lesions compared to soybean oil [2]: benefit
